Source: patent US20240109917A1 (ACTELION PHARMACEUTICALS LTD, priority 2020, published 2024)

What follows are compounds tested against VEGFR2, unphosphorylated (Homo sapiens (Human), UniProt P35968) (assay: VEGFR ADP GLO Assay).
Type: biochemical

Chain of VEGFR2, unphosphorylated (P35968 20-1356): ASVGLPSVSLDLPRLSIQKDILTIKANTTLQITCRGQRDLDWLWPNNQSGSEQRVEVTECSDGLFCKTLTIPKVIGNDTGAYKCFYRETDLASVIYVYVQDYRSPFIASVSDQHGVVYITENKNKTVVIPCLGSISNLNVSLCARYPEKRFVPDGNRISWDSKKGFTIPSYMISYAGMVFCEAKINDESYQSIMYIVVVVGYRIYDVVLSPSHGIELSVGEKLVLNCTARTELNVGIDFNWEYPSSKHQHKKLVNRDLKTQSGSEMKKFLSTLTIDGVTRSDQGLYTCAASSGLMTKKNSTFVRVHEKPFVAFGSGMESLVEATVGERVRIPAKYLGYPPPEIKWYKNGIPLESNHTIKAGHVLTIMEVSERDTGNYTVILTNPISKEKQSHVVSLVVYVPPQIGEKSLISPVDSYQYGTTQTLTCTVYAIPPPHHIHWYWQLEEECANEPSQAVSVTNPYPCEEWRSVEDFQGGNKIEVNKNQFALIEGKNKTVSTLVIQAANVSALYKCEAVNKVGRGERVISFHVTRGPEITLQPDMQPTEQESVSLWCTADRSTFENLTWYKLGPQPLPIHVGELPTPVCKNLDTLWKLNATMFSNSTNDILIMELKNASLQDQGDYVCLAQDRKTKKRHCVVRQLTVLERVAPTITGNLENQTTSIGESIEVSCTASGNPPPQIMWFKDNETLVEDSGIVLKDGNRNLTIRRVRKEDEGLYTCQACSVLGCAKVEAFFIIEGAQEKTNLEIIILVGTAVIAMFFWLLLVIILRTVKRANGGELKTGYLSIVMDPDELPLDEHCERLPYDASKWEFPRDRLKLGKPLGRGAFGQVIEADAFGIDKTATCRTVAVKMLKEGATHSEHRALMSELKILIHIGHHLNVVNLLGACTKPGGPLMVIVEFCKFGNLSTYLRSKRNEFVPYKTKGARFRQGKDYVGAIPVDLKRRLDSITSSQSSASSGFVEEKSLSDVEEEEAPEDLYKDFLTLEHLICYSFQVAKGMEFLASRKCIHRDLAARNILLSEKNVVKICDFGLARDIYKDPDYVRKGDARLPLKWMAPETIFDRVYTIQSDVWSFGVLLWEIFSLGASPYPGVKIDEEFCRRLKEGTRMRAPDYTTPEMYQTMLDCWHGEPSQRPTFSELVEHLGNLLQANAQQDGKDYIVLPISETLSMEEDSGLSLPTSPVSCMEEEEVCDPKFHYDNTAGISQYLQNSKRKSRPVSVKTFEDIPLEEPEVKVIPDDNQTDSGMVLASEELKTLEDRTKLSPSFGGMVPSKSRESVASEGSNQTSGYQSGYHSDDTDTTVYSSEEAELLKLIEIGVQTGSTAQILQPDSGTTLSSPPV

Row | Compound | IC50 [µM]
1 | COCCn1cc(-c2cn3ncc(C(=O)Nc4cc(NC(=O)CCN5CCC6(CCC6)C5)cnc4C)c3s2)cn1 [Example 90, N-(5-(3-(6-azaspiro[3.4]octan-6-yl)propanamido)-2-methylpyridin-3-yl)-2-(1-(2-methoxyethyl)-1H-pyrazol-4-yl)pyrazolo[5,1-b]thiazole-7-carboxamide] | > 2.5
2 | Cc1ncc(NC(=O)CN2CCC[C@@H]2C)cc1NC(=O)c1cnn2cc(-c3cnn(CCO)c3)sc12 [Example 84, (S)-2-(1-(2-hydroxyethyl)-1H-pyrazol-4-yl)-N-(2-methyl-5-(2-(2-methylpyrrolidin-1-yl)acetamido)pyridin-3-yl)pyrazolo[5,1-b]thiazole-7-carboxamide] | > 7.5
3 | Cc1ncc(NC(=O)CN2CCc3c(cnn3C)C2)cc1NC(=O)c1cnn2cc(-c3cnn(C)c3)sc12 [Example 57, 2-(1-methyl-1H-pyrazol-4-yl)-N-(2-methyl-5-(2-(1-methyl-6,7-dihydro-1H-pyrazolo[4,3-c]pyridin-5 (4H)-yl)acetamido)pyridin-3-yl)pyrazolo[5,1-b]thiazole-7-carboxamide] | > 7.5
4 | Cc1ncc(NC(=O)CN2CCOC[C@@H]2C)cc1NC(=O)c1cnn2cc(-c3cnn(C)c3)sc12 [Example 74, (S)-2-(1-methyl-1H-pyrazol-4-yl)-N-(2-methyl-5-(2-(3-methylmorpholino)acetamido)pyridin-3-yl)pyrazolo[5,1-b]thiazole-7-carboxamide] | > 7.5
5 | Cc1ncc(NC(=O)CN2CCOCC2(C)C)cc1NC(=O)c1cnn2cc(-c3cnn(C)c3)sc12 [Example 68, N-(5-(2-(3,3-dimethylmorpholino)acetamido)-2-methylpyridin-3-yl)-2-(1-methyl-1H-pyrazol-4-yl)pyrazolo[5,1-b]thiazole-7-carboxamide] | > 7.5
6 | COCCn1cc(-c2cn3ncc(C(=O)Nc4cc(NC(=O)CCN5CCC(C)(C)C5)cnc4C)c3s2)cn1 [Example 89, N-(5-(3-(3,3-dimethylpyrrolidin-1-yl)propanamido)-2-methylpyridin-3-yl)-2-(1-(2-methoxyethyl)-1H-pyrazol-4-yl)pyrazolo[5,1-b]thiazole-7-carboxamide] | > 7.5
